Structures can show the parent of a compound that is named as a salt. Activity calls are given as the source filed them. Rule as the data show it, for most assays here: actives have a measured Kd and inactives only a lower limit.
Legend:
[1] = biological target: T1, Beta-adrenergic receptor kinase 1 (Homo sapiens, UniProt P25098)
T1 sequence (P25098 whole entry): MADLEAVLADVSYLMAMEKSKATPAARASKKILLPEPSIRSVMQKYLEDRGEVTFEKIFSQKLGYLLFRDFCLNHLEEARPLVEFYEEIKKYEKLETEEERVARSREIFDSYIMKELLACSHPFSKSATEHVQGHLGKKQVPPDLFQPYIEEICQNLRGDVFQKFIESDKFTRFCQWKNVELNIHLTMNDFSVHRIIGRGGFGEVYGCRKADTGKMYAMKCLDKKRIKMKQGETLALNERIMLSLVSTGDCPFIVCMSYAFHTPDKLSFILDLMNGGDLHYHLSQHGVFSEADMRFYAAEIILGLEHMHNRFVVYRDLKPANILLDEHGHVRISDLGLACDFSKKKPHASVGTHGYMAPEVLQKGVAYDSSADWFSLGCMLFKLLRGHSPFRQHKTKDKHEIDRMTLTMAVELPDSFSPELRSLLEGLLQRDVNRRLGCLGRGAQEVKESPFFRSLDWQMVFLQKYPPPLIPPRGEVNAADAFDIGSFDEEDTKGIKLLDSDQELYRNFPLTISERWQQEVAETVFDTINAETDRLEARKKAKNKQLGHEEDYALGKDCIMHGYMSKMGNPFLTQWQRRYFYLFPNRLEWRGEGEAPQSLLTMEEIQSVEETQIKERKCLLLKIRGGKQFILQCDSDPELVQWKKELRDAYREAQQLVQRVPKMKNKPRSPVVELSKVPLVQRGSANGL

[2] = biological target: T2, Calcium/calmodulin-dependent protein kinase type IV (Homo sapiens, UniProt Q16566)
T2 sequence (Q16566 whole entry): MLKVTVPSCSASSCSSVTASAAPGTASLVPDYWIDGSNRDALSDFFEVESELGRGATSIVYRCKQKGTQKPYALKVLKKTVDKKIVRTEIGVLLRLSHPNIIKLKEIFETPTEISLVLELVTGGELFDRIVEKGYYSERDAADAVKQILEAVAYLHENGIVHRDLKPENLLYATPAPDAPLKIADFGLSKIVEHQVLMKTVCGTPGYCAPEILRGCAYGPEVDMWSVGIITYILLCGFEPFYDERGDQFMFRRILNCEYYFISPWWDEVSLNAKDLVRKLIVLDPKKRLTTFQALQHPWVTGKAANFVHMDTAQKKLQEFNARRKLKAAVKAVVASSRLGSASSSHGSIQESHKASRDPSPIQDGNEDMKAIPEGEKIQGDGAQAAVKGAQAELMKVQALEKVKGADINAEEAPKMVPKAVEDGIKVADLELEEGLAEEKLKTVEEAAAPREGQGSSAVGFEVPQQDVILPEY

[3] = biological target: T3, Membrane-associated tyrosine- and threonine-specific cdc2-inhibitory kinase (Homo sapiens, UniProt Q99640)
T3 sequence (Q99640 whole entry): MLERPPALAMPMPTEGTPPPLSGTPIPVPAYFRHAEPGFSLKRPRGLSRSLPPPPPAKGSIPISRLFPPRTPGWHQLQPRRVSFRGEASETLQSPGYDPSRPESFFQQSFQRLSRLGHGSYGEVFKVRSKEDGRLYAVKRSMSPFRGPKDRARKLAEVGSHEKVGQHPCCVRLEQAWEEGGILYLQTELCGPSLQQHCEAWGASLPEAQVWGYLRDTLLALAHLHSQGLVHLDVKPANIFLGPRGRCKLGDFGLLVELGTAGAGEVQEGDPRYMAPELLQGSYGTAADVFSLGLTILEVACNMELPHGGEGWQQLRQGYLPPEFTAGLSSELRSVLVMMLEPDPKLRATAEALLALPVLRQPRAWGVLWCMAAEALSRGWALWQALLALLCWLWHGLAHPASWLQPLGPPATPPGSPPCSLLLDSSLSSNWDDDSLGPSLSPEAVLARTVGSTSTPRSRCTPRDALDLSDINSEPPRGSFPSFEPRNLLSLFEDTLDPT

[4] = biological target: Protein kinase C delta type (Homo sapiens, UniProt Q05655)
[5] = biological target: Ribosomal protein S6 kinase alpha-3 (Homo sapiens, UniProt P51812)
[6] = biological target: Serine/threonine-protein kinase 26 (Homo sapiens, UniProt Q9P289)
[7] = biological target: T4, Non-receptor tyrosine-protein kinase TNK1 (Homo sapiens, UniProt Q13470)
T4 sequence (Q13470 whole entry): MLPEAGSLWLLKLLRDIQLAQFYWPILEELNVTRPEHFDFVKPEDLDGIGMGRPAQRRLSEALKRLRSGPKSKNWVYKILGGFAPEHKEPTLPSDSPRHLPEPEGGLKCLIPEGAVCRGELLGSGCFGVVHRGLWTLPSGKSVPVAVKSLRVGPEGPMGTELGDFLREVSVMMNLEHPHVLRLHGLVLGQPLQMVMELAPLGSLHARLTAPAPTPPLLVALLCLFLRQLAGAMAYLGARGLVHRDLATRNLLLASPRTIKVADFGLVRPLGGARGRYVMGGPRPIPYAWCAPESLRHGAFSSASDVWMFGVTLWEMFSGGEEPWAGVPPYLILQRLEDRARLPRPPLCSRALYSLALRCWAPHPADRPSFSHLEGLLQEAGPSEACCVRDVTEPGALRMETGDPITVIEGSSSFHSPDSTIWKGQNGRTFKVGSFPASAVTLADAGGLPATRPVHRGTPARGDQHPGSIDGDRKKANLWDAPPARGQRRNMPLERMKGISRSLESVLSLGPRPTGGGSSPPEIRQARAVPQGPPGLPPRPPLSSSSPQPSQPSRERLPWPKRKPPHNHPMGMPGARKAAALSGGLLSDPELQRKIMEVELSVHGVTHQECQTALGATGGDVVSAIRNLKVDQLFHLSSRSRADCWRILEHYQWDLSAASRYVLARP
Also: in the data inactive means no Kd found up to 30 µM.

Protein kinase C delta type, sequence (Q05655 whole entry): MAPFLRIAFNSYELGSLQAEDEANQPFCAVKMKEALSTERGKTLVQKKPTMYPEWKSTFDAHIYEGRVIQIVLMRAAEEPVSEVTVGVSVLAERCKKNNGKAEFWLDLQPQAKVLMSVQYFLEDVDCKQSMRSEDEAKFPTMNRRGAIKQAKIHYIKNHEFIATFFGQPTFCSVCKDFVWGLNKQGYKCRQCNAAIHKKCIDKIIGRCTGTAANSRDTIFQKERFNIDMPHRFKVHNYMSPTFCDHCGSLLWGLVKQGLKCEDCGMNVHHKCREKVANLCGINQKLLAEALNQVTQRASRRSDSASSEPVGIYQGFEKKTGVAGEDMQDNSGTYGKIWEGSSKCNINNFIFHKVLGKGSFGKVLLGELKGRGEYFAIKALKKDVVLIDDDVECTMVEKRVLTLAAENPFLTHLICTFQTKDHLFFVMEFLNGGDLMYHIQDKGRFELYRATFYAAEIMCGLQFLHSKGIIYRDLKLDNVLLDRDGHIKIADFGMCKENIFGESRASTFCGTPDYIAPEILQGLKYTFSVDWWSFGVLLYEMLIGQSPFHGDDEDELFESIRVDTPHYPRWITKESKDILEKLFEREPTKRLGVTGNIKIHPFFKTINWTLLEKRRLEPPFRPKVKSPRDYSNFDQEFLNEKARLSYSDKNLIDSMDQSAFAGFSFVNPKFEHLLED
Serine/threonine-protein kinase 26, sequence (Q9P289 whole entry): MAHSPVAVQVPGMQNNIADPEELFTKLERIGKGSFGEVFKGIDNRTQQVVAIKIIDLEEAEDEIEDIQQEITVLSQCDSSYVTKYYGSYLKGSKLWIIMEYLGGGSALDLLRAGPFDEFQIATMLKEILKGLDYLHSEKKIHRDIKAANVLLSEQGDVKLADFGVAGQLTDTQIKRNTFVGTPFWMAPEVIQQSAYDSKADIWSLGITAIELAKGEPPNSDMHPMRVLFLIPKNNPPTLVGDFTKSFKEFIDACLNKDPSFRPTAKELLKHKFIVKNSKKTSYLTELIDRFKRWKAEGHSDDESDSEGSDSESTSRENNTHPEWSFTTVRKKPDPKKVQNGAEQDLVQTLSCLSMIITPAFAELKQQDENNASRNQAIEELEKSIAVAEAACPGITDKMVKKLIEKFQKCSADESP
Ribosomal protein S6 kinase alpha-3, sequence (P51812 whole entry): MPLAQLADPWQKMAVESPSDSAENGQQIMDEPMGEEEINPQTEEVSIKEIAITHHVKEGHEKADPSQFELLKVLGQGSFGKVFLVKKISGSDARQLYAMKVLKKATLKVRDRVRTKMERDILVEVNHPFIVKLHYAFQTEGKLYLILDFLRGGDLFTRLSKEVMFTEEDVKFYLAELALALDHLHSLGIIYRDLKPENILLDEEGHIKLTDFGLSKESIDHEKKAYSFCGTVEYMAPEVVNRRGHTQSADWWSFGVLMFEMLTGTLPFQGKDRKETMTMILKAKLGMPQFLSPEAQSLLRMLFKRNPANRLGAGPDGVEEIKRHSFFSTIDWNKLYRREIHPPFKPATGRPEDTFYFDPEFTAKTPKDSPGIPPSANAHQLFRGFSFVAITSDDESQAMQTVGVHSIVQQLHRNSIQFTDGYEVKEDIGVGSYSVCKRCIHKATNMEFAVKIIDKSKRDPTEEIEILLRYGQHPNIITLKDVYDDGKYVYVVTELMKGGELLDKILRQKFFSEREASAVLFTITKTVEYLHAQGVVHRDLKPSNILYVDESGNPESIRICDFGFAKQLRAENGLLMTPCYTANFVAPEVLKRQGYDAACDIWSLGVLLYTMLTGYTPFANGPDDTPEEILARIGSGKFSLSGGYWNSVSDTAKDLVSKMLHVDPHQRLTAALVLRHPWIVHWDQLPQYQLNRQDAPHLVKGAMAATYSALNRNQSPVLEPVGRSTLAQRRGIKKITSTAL

Kd [1] | Kd [2] | Kd [3] | Kd [4] | Kd [5] | Kd [6] | Kd [7] | SMILES
> 30 µM (inactive) | > 30 µM (inactive) | > 30 µM (inactive) | > 30 µM (inactive) | > 30 µM (inactive) | > 30 µM (inactive) | > 30 µM (inactive) | Nc1ncnc2c1c(-c1cccc(OCc3ccccc3)c1)cn2[C@H]1C[C@@H](CN2CCC2)C1 [AEW-541]
> 30 µM (inactive) | 1.82 µM (active) | > 30 µM (inactive) | 1.09 µM (active) | > 30 µM (inactive) | 3.02 µM (active) | > 30 µM (inactive) | Cc1csc(-c2nnc(Nc3ccc(Oc4ncccc4-c4ccnc(N)n4)cc3)c3ccccc23)c1 [AMG-900]
> 30 µM (inactive) | > 30 µM (inactive) | > 30 µM (inactive) | > 30 µM (inactive) | > 30 µM (inactive) | > 30 µM (inactive) | > 30 µM (inactive) | Cc1cc(C(=O)NOCCO)c(Nc2ccc(I)cc2F)n(C)c1=O [AZD-8330]
> 30 µM (inactive) | > 30 µM (inactive) | > 30 µM (inactive) | > 30 µM (inactive) | > 30 µM (inactive) | > 30 µM (inactive) | > 30 µM (inactive) | Cn1cnc2c(F)c(Nc3ccc(Br)cc3F)c(C(=O)NOCCO)cc21 [BINIMETINIB]
> 30 µM (inactive) | > 30 µM (inactive) | > 30 µM (inactive) | > 30 µM (inactive) | > 30 µM (inactive) | > 30 µM (inactive) | > 30 µM (inactive) | CCn1c(C(=O)N(C2CC2)C2CC2)cc2c3c(ncn3C)c(Nc3cc(C)n(C)n3)nc21 [BMS-911543]
> 30 µM (inactive) | > 30 µM (inactive) | > 30 µM (inactive) | > 30 µM (inactive) | > 30 µM (inactive) | > 30 µM (inactive) | > 30 µM (inactive) | COc1cc2ncnc(Oc3cccc(NC(=O)Nc4cc(C(C)(C)C(F)(F)F)on4)c3)c2cc1OC [CEP-32496]
> 30 µM (inactive) | 0.635 µM (active) | > 30 µM (inactive) | > 30 µM (inactive) | > 30 µM (inactive) | > 30 µM (inactive) | 0.027 µM (active) | Cc1cc(Nc2ncc(Cl)c(Nc3ccccc3S(=O)(=O)C(C)C)n2)c(OC(C)C)cc1C1CCNCC1 [CERITINIB]
> 30 µM (inactive) | > 30 µM (inactive) | > 30 µM (inactive) | > 30 µM (inactive) | > 30 µM (inactive) | > 30 µM (inactive) | > 30 µM (inactive) | COc1c(OCCCN2CCOCC2)ccc2c1N=C(NC(=O)c1cnc(N)nc1)N1CCN=C21 [COPANLISIB]
> 30 µM (inactive) | > 30 µM (inactive) | > 30 µM (inactive) | > 30 µM (inactive) | > 30 µM (inactive) | > 30 µM (inactive) | > 30 µM (inactive) | COCC(=O)NC/C=C/c1ccc2ncnc(Nc3ccc(Oc4ccc(C)nc4)c(C)c3)c2c1 [CP-724714]
> 30 µM (inactive) | > 30 µM (inactive) | > 30 µM (inactive) | > 30 µM (inactive) | > 30 µM (inactive) | > 30 µM (inactive) | > 30 µM (inactive) | C#Cc1cccc(Nc2ncnc3cc(OC)c(OCCCCCCC(=O)NO)cc23)c1 [CUDC-101]
> 30 µM (inactive) | > 30 µM (inactive) | > 30 µM (inactive) | 3.82 µM (active) | 5.89 µM (active) | 0.029 µM | > 30 µM (inactive) | CCS(=O)(=O)N1CCN(c2ccc(Nc3ncc(C(N)=O)c(NC4CC4)n3)cc2)CC1 [Cerdulatinib Hydrochloride]

SMILES | Kd [1] | Kd [2] | Kd [3] | Kd [4] | Kd [5] | Kd [6] | Kd [7]
COc1cc([C@@H]2c3cc4c(cc3[C@H](O)[C@H]3COC(=O)[C@@H]23)OCO4)cc(OC)c1OC [AXL-1717] | > 30 µM (inactive) | > 30 µM (inactive) | > 30 µM (inactive) | > 30 µM (inactive) | > 30 µM (inactive) | > 30 µM (inactive) | > 30 µM (inactive)
NC(=O)Nc1cc(-c2cccc(F)c2)sc1C(=O)N[C@H]1CCCNC1 [AZD-7762] | > 30 µM (inactive) | > 30 µM (inactive) | > 30 µM (inactive) | 0.928 µM | > 30 µM (inactive) | > 30 µM (inactive) | > 30 µM (inactive)

Reference: ChEMBL document CHEMBL3991601, “The target landscape of clinical kinase drugs” (Science, 2017)
